ChEMBL document CHEMBL3508140 (2016)

Experiments:
[1] = AUC values (0-48 h) of epirubicinol in tumor following single intravenous epirubicin at 10 mg.Kg-1 dose in female mouse bearing colon tumor; format: ADME, organism-based, BALB/c, Neoplasm; conditions: in vivo
[2] = AUC values (0-48 h) of epirubicinol in plasma following single intravenous epirubicin at 10 mg.Kg-1 dose in female mouse bearing colon tumor; format: ADME, organism-based, BALB/c; conditions: in vivo
[3] = Recovery of epirubicinol following intraperitoneal epirubicin at 4 mg.Kg-1 dose in hamster; format: ADME, organism-based, Cricetulus griseus, Plasma; conditions: chinese hamster, in vivo, ip
[4] = Urinary excretion of epirubicinol following epirubicin at 60-150 mg.m-2 dose in cancer patients; format: ADME, organism-based, Urine; conditions: human, in vivo
[5] = (§1) Urinary elimination of 4'-epiadriamycinol following intravenous bolus 4'-epiadriamycin at 10 mg.Kg-1 dose in rat; format: ADME, organism-based, SD, Urine; conditions: in vivo
[6] = Recovery of epirubicinol following intravenous epirubicin at 4 mg.Kg-1 dose in rat; format: ADME, organism-based, SD, Plasma; conditions: in vivo
[7] = Detection of epirubicinol in heart following single intravenous epirubicin at 10 mg.Kg-1 dose in female mouse bearing colon tumor; format: ADME, organism-based, BALB/c; conditions: in vivo
[8] = Detection of epirubicinol in plasma following single intravenous epirubicin at 10 mg.Kg-1 dose in female mouse bearing colon tumor; format: ADME, organism-based, BALB/c; conditions: in vivo
[9] = (§2) Urinary excretion of epirubicinol following epirubicin at 50 mg.m-2 dose in cancer patients; format: ADME, organism-based, Urine; conditions: human, in vivo; at 50 mg/m2
[10] = AUC(0-24 h) of epirubicinol following intravenous epirubicin at 1 mg.Kg-1 dose in rabbit; format: ADME, organism-based, Oryctolagus cuniculus, New Zealand White, Plasma; conditions: in vivo
[11] = AUC values (0-48 h) of epirubicinol in heart following single intravenous epirubicin at 10 mg.Kg-1 dose in female mouse bearing colon tumor; format: ADME, organism-based, BALB/c; conditions: in vivo
[12] = as §1; format: ADME, organism-based, SD, Urine; conditions: in vivo; remark: listed apart in the source
[13] = Urinary excretion of epirubicinol following epirubicin at 75-90 mg.m-2 dose in cancer patients; format: ADME, organism-based, Urine; conditions: human, in vivo
[14] = Urinary excretion of epirubicinol following epirubicin at 60 mg.m-2 dose in cancer patients; format: ADME, organism-based, Urine; conditions: human, in vivo; at 60 mg/m2
[15] = Recovery of epirubicinol following intravenous epirubicin at 1.5 mg.Kg-1 dose in man; format: ADME, organism-based, Plasma; conditions: human, in vivo
[16] = Recovery of epirubicinol following intravenous epirubicin at 4 mg.Kg-1 dose in rabbit; format: ADME, organism-based, Oryctolagus cuniculus, New Zealand White, Plasma; conditions: in vivo
[17] = as §1; format: ADME, organism-based, SD, Urine; conditions: in vivo; remark: listed apart in the source
[18] = Biliary excretion of epirubicinol following epirubicin at 50 mg.m-2 dose in cancer patients; format: ADME, organism-based, Bile; conditions: human, in vivo; at 50 mg/m2
[19] = as §2; format: ADME, organism-based, Urine; conditions: human, in vivo; at 50 mg/m2; remark: listed apart in the source
[20] = Recovery of epirubicinol following intraperitoneal epirubicin at 4 mg.Kg-1 dose in mouse; format: ADME, organism-based, CD-1, Plasma; conditions: in vivo, ip
[21] = Detection of epirubicinol in tumor following single intravenous epirubicin at 10 mg.Kg-1 dose in female mouse bearing colon tumor; format: ADME, organism-based, BALB/c, Neoplasm; conditions: in vivo
[22] = AUC(0-24 h) of epirubicinol following intravenous epirubicin at 3 mg.Kg-1 dose in rabbit; format: ADME, organism-based, Oryctolagus cuniculus, New Zealand White, Plasma; conditions: in vivo

AUC [1]: 0 nmol·min/g
AUC [2]: 0.5 nmol·min/mL
Compound recovery [3]: 3.3 10^-9M
Compound recovery [4]: 0.5%
Compound recovery [5]: 0.03%
Compound recovery [6]: 0.4 10^-9M
Compound recovery [7]: OUTCOME = Observed
Compound recovery [8]: OUTCOME = Observed
Compound recovery [9]: 0.6%
AUC [10]: 69.46 ng·h/mL
AUC [11]: 46 nmol·min/g
Compound recovery [12]: 0.044%
Compound recovery [13]: 0.8%
Compound recovery [14]: 0.9%
Compound recovery [15]: 15 10^-9M
Compound recovery [16]: 23 10^-9M
Compound recovery [17]: 0.024%
Compound recovery [18]: 6.5%
Compound recovery [19]: 4.1%
Compound recovery [20]: 0.2 10^-9M
Compound recovery [21]: OUTCOME = Not detected/not observed
AUC [22]: 204.86 ng·h/mL
SMILES: COc1cccc2c1C(=O)c1c(O)c3c(c(O)c1C2=O)C[C@@](O)(C(O)CO)C[C@@H]3O[C@H]1C[C@H](N)[C@@H](O)[C@H](C)O1 (some centres not stated)
